One substance from patent US12280047B2, “Treatment of aneurysms” (Georgia State Research Foundation, Inc., priority 2017, dated 2025) can be followed below.

Assay type in all cases: in vivo
Assay [1] deals with ApoE−/− and ApoE−/−/IDO−/− mice. Briefly: Blood pressure and heart rate in AngII-infused mice. As to conditions: 4 weeks, mean ± s.e.m.; for sBP: AngII 1000 ng/min/kg; for Dbp / HR: AngII. The text has this: (§1) IDO^−/− and ApoE^−/− mice were obtained from Jackson laboratory (Bar Harbor, Maine) in a C57BL/6 background. IDO^−/− mice were crossed with ApoE^−/− mice to generate ApoE^−/−/IDO^−/− mice. Mice were housed in temperature-controlled cages under a 12-hour light/dark cycle and given free access to water and normal chow. All procedures involving animals were approved by the Institutional Animal Care and Use Committee at the University of Oklahoma Health Sciences Center. […] Circ Res. (2014) 114:480-92.
Circ Res. (2014) 114:480-92.
AngII-induced mouse AAA formation in the atherosclerotic-susceptible strain (ApoE^−/−) has become the most widely used model. See Qin Z, et al., Angiotensin II-induced TLR4 mediated abdominal aortic aneurysm in apolipoprotein E knockout mice is dependent on STAT3. J Mol Cell Cardiol. (2015) 87:160-70; Rateri D L, et al., Prolonged infusion of angiotensin II in ApoE (−/−) mice promotes macrophage recruitment with continued expansion of abdominal aortic aneurysm. Am J Pathol. (2011) 179:1542-8; Cassis L A, et al., ANG II infusion promotes abdominal aortic aneurysms independent of increased blood pressure in hypercholesterolemic mice. Am J Physiol Heart Circ Physiol. (2009) 296:H1660-5; Daugherty A and Cassis L A. Mouse models of abdominal aortic aneurysms. Arterioscler Thromb Vasc Biol. (2004) 24:429-34; Owens A P, 3rd, Rateri D L, Howatt D A, Moore K J, Tobias P S, Curtiss L K, Lu H, Cassis L A and Daugherty A. MyD88 deficiency attenuates angiotensin II-induced abdominal aortic aneurysm formation independent of signaling through Toll-like receptors 2 and 4. Arterioscler Thromb Vasc Biol. (2011) 31:2813-9. To unravel the role of the Trp-Kyn pathway in AAA formation ApoE^−/−/IDO^−/− (double-knockout) mice were generated and the outcome of a 4-week AngII infusion (1000 ng/min/kg) in ApoE^−/− and ApoE^−/−/IDO^−/− mice was determined. As depicted in Table 1 and 2, AngII infusion increased blood pressure without affecting the heart rate or any metabolic parameters.

Assay [2] has the same test system. Briefly: AngII-induced AAA after reciprocal bone marrow transplants. As to conditions: AngII 1000 ng/min per kg, 4 weeks. The method, then:
Bone marrow transplantation was performed as described previously (Lukasova M, et al., Nicotinic acid inhibits progression of atherosclerosis in mice through its receptor GPR109A expressed by immune cells. J Clin Invest. (2011) 121:1163-73; Duran-Struuck R and Dysko R C. Principles of bone marrow transplantation (BMT): providing optimal veterinary and husbandry care to irradiated mice in BMT studies. J Am Assoc Lab Anim Sci. (2009) 48:11-22). Bone marrow was obtained aseptically from femora and tibiae of ApoE^−/− or ApoE^−/−/IDO^−/− mice. Cells (5×10^6/mouse) were resuspended in sterile PBS and transplanted by intravenous infusion into lethally irradiated (10 Gy) ApoE^−/− or ApoE^−/−/IDO^−/− mice recipients 6 hours after irradiation at the age of 8 weeks.
To quantify AAA incidence and size, the maximum width of abdominal aorta was measure with Image Pro Plus software (Media Cybernetics). We quantified aneurysm incidence based on a definition of aneurysm as an external width of the suprarenal aorta that was increased by 50% or greater compared with aortas from saline-infused mice, as described previously (Sparks A R, et al., Imaging of abdominal aortic aneurysms. Am Fam Physician. (2002) 65:1565-70). The average diameter of the normal suprarenal aorta in control mice is 0.8 mm. We therefore set a threshold of 1.22 mm as evidence of aneurysm formation. […]

A further assay has as its system ApoE−/− mice. Briefly: OMBA, NBA and 1MT treating AngII-induced abdominal aortic aneurysm (Example 15). As to conditions: ApoE−/− mice; AngII 1,000 ng/kg/min four weeks, then drug in drinking water 6 weeks; mice with AAA/group size. Here is the method: To test the effect of other Kynurenine pathway inhibitors on treating AngII-induced abdominal aortic aneurysm, male ApoE^−/− mice at age 8 weeks were infused with AngII (1,000 ng/kg/min) or saline (0.9% sodium chloride) by Alzet osmotic pumps for four weeks. Four weeks later, Ang-II treated mice were divided into […] groups of 18 and administered o-methoxybenzo ylalanine (OMB), (m-nitrobenzoyl)alanine (NBA), 1-methyltryptophan (1MT) or vehicle control (water) by drinking water for 6 weeks.
To quantify AAA incidence and size, the maximum width of abdominal aorta was measured with Image Pro Plus software (Media Cybernetics). Aneurysm incidence was quantified based on a definition of aneurysm as an external width of the suprarenal aorta that was increased by 50% or greater compared with aortas from saline-infused mice. The average diameter of the normal suprarenal aorta in control mice is 0.8 mm. Therefore, a threshold of 1.22 mm as evidence of aneurysm formation was set. […] Incidence of AAA among the various groups of mice is outlined in FIG. 31A and Table 5 below.

Assay [3] relates to ApoE−/− and ApoE−/−/IDO−/− mice. In words: AngII-induced AAA formation in ApoE−/− and ApoE−/−/IDO−/− mice. As to conditions: AngII 1000 ng/min/kg, 4 weeks.
Source text: as §1
To quantify AAA incidence and size, the maximum width of abdominal aorta was measure with Image Pro Plus software (Media Cybernetics). We quantified aneurysm incidence based on a definition of aneurysm as an external width of the suprarenal aorta that was increased by 50% or greater compared with aortas from saline-infused mice, as described previously (Sparks A R, et al., Imaging of abdominal aortic aneurysms. Am Fam Physician. (2002) 65:1565-70). The average diameter of the normal suprarenal aorta in control mice is 0.8 mm. […]
AngII-induced mouse AAA formation in the atherosclerotic-susceptible strain (ApoE^−/−) has become the most widely used model. […] To unravel the role of the Trp-Kyn pathway in AAA formation ApoE^−/−/IDO^−/− (double-knockout) mice were generated and the outcome of a 4-week AngII infusion (1000 ng/min/kg) in ApoE^−/− and ApoE^−/−/IDO^−/− mice was determined. […]

For the substance “Angiotensin II (DRVYIHPF; Angiotensin-2; UniProt P01019 25-32, looked up) [AngII, Angiotensin II (Sigma, A9525) infused to induce AAA in mice]”, the results for the sBP in assay [1] (Apoe−/− mice) and in assay [1] (Apoe−/−/IDO−/− mice) were 149.1 ± 19.5 mm Hg and 155.6 ± 18.4 mm Hg, respectively. Further, the Dbp stood at 112.7 ± 17.3 mmHg in assay [1] (Apoe−/− mice) and 119.1 ± 14.9 mmHg in assay [1] (Apoe−/−/IDO−/− mice). In addition, the HR is given as 471 ± 42 Beats/min in assay [1] (Apoe−/− mice) and 453 ± 43 Beats/min in assay [1] (Apoe−/−/IDO−/− mice). The AAA incidence result in assay [2] (ApoE−/− mice transplanted with IDO−/− or IDO+/+ bone marrow cells) is on record as “approximately 70%”; in assay [2] (ApoE−/−/IDO−/− mice transplanted with IDO−/− or IDO+/+ bone marrow cells), 20%. Further, the “Incidence of AAA” value in the assay on ApoE−/− mice is recorded as 15/18. The “incidence of AngII-induced AAA” value in assay [3] (ApoE−/− mice) is reported as 73%; in assay [3] (ApoE−/−/IDO−/− mice), 15%.
